Test results published in publication PMC10065799, “High-throughput profiling of sequence recognition by tyrosine kinases and SH2 domains using bacterial peptide display” (eLife, 2023).
One block for each molecule: values may come before it.

What was measured:
AncSZ kinase domain = test: pTyr-Var library bacterial peptide display kinase screen (enrichment scores); type: biochemical;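 on AncSZ hit?: Hit requires p below 0.05 and at least twofold variant vs reference change plus filters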
FGFR3 kinase domain = test: as above; type: biochemical, human
Fer kinase domain = test: as above; type: biochemical, mouse;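 on Fer hit?: Hit requires p below 0.05 and at least twofold variant vs reference change plus filters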
EPHB2 kinase domain = test: as above; type: biochemical, human
c-Abl kinase domain = molecular target: T1, c-Abl kinase domain (Mus musculus, UniProt P00520); test: as above; type: biochemical;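 on c-Abl hit?: Hit requires p below 0.05 and at least twofold variant vs reference change plus filters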
T1 sequence (P00520 242-493 limits assumed): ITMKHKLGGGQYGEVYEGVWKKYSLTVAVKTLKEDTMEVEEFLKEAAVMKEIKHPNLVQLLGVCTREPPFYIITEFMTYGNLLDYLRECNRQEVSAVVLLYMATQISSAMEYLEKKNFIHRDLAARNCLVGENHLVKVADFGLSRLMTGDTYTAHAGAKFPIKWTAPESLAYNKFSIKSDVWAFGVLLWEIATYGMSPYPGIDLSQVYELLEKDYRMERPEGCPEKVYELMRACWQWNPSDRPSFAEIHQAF

SHP2 C-SH2 domain = test: pTyr-Var library SH2 domain screen with SH2-dynabeads (enrichment scores)
Jak2 = test: pTyr-Var library bacterial peptide display kinase screen (enrichment scores); type: biochemical, human
EPHB1 kinase domain = test: as above; type: biochemical, human
c-Src kinase domain [1] = molecular target: T2, c-Src kinase domain (Homo sapiens, UniProt P12931); test: as above; type: biochemical
FGFR1 kinase domain [2] = test: as above; type: biochemical, human
c-Src SH2 domain = c-Src SH2 domain (Homo sapiens, UniProt P12931); test: pTyr-Var library SH2 domain screen with SH2-dynabeads (enrichment scores); details: sheet c-Src
Fyn kinase domain [3] = test: pTyr-Var library bacterial peptide display kinase screen (enrichment scores); type: biochemical, human
Grb2 SH2 domain = test: pTyr-Var library SH2 domain screen with SH2-dynabeads (enrichment scores)
Fes = test: pTyr-Var library bacterial peptide display kinase screen (enrichment scores); type: biochemical
Hck kinase domain = test: as above; type: biochemical, human
MERTK kinase domain = test: as above; type: biochemical, human
c-Src kinase domain [4] = molecular target: T2, c-Src kinase domain; test: RP-HPLC assay to measure peptide phosphorylation kinetics; type: biochemical; details: purified peptide substrate
Protocol: To validate the enrichment scores observed in the c-Src screening data, the phosphorylation rates were measured in vitro with the purified catalytic domain of c-Src and synthetic 11-residue peptides derived from sequences in the pTyr-Var library. […] Reactions were initiated by adding 1 mM ATP. At various time points, 100 μL aliquots were removed and quenched by the addition of EDTA to a final concentration of 25 mM. Each time point sample was analyzed by analytical RP-HPLC, monitoring absorbance at 214 nm. Forty μL of each time point was injected onto a C18 column (ZORBAX 300 SB-C18, 5 μm, 4.6x150 mm). The solvent system used was water with 0.1% trifluoroacetic acid (solvent A) and acetonitrile with 0.1% trifluoroacetic acid (solvent B). […] The fractional product peak area was plotted as a function of reaction time, and the initial linear regime of this plot was fitted to a straight line to determine a reaction rate. Rates were corrected for substrate and enzyme concentration. Reactions were done in triplicate or quadruplicate.

FGFR1 kinase domain [5] = test: LC-MS assay of intact SHP2 protein phosphorylation; type: biochemical, human; details: SHP2 10 μM, kinase 1 μM, 1 hr, 37 °C, 2 to 3 measurements
Protocol: (§1) The same protocol used to express and purify SH2 domains, excluding co-expression of BirA and addition of biotin, was applied to the expression and purification of the SHP2 variants.
(§2) To pre-activate the kinases, 1 μM of each purified kinase domain was preincubated at 37 °C for 30 min in the same buffer conditions used in the kinase domain peptide display screen, with 1 mM ATP. The reaction of the kinase with SHP2 was initiated with the addition of 10 μM SHP2, and the mixture was incubated in 37 °C for 1 hr. To terminate the reaction, the mixture was quenched with 200 mM EDTA. The reaction mixture was diluted 3:2 in water and injected onto a BEH C8 column (Waters) on a UPLC-MS system (Xevo QToF, Waters). Reverse-phase liquid chromatography was carried out at 0.3 mL/min with solvents A (H2O, 0.1% (v/v) formic acid) and B (acetonitrile, 0.1% (v/v) formic acid). Proteins were eluted over a gradient of 5–95% B for 8.5 min. The protein peak on the chromatogram was deconvoluted using the MaxEnt1 algorithm from 32,000–65,000 Da with a resolution of 1 Da/channel over 30 iterations. Peaks were chosen according to the theoretical MW of the protein within a range of 5 Da, and integrated for the signal intensity.

Fyn kinase domain [6] = test: LC-MS assay of intact SHP2 protein phosphorylation; type: biochemical, human; details: SHP2 10 μM, kinase 1 μM, 1 hr, 37 °C, 2 to 3 measurements
Protocol: as §1, §2

[7] = pTyr-Var library, enrichment score, replicate 1
[8] = pTyr-Var library, enrichment score, replicate 3
[9] = pTyr-Var library, enrichment score, replicate 4
[10] = variant versus reference peptide
[11] = variant versus reference peptide, significant hit TRUE/FALSE
[12] = mean of log2(variant) minus mean of log2(reference)
[13] = mean of log2 enrichment of variant peptide, n = 5
[14] = mean of log2 of enrichment over R1-R4
[15] = mean of log2 enrichment of variant peptide, n = 4
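Wherever c-Src hit? is given: Hit requires p below 0.05 and at least twofold variant vs reference change plus filters.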
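Wherever screen is given: log2 fold change in enrichment of variant over reference.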

Molecule: GMAHNYRNRSQ [AASS_Y188_S191R]
AncSZ mean of log2(enrichment) (AncSZ kinase domain; mean of log2 of enrichment over R1-R5): -0.8229
AncSZ enrich. R1 (AncSZ kinase domain; [7]): 0.4421
AncSZ enrich. R3 (AncSZ kinase domain; [8]): 0.7733
AncSZ enrich. R4 (AncSZ kinase domain; [9]): 0.7058
AncSZ enrich. R5 (AncSZ kinase domain; pTyr-Var library, enrichment score, replicate 5): 0.7616
AncSZ difference (mean log2 variant - mean log2 reference) (AncSZ kinase domain; [10]): -0.03377
AncSZ hit? (AncSZ kinase domain; [11]): FALSE
difference (FGFR3 kinase domain; [12]): -0.0947
mean of log2(variant) (FGFR3 kinase domain; [13]): -1.326
Fer mean of log2(enrichment) (Fer kinase domain; [14]): -1.585
Fer enrich. R1 (Fer kinase domain; [7]): 0.273
Fer enrich. R3 (Fer kinase domain; [8]): 0.5188
Fer enrich. R4 (Fer kinase domain; [9]): 0.4406
Fer difference (mean log2 variant - mean log2 reference) (Fer kinase domain; [10]): -0.1949
Fer hit? (Fer kinase domain; [11]): FALSE
difference (EPHB2 kinase domain; [12]): -0.2462
mean of log2(variant) (EPHB2 kinase domain; [15]): -1.376
c-Abl mean of log2(enrichment) (c-Abl kinase domain; [14]): -0.8983
c-Abl enrich. R1 (c-Abl kinase domain; [7]): 0.3489
c-Abl enrich. R3 (c-Abl kinase domain; [8]): 0.6113
c-Abl enrich. R4 (c-Abl kinase domain; [9]): 0.4438
c-Abl hit? (c-Abl kinase domain; [11]): FALSE
difference (SHP2 C-SH2 domain; SHP2-C SH2, mean of log2(variant) minus mean of log2(reference)): -0.6126
mean of log2(variant) (SHP2 C-SH2 domain; SHP2-C SH2, mean of log2 enrichment of variant, R1-R3): -1.425
hit? (SHP2 C-SH2 domain; SHP2-C SH2, variant versus reference significant hit call): FALSE
Jak2 mean of log2(enrichment) (Jak2; mean of log2 of enrichment over R1-R3): -1.127
Jak2 enrich. R3 (Jak2; [8]): 0.7448
Jak2 difference (mean log2 variant - mean log2 reference) (Jak2; [10]): 0.1075
Jak2 hit? (Jak2; [11]): FALSE
difference (EPHB1 kinase domain; [12]): 0.7368
mean of log2(variant) (EPHB1 kinase domain; [15]): -1.347
c-Src mean of log2(enrichment) (c-Src kinase domain [1]; [14]): -1.078
c-Src enrich. R1 (c-Src kinase domain [1]; [7]): 0.5961
c-Src enrich. R3 (c-Src kinase domain [1]; [8]): 0.5045
c-Src enrich. R4 (c-Src kinase domain [1]; [9]): 0.4581
c-Src difference (mean log2 variant - mean log2 reference) (c-Src kinase domain [1]; [10]): 0.3253
c-Src hit? (c-Src kinase domain [1]; [11]): FALSE
difference (FGFR1 kinase domain [2]; [12]): -0.1712
mean of log2(variant) (FGFR1 kinase domain [2]; [13]): -1.608
var. mean (FGFR1 kinase domain [2]; pTyr-Var library, variant peptide enrichment, mean of n = 5): 0.3444
difference (c-Src SH2 domain; [12]): -0.07136
mean of log2(variant) (c-Src SH2 domain; mean of log2 enrichment of variant peptide, R1-R3): -1.19
Fyn mean of log2(enrichment) (Fyn kinase domain [3]; [14]): -1.18
Fyn enrich. R1 (Fyn kinase domain [3]; [7]): 0.3131
Fyn enrich. R3 (Fyn kinase domain [3]; [8]): 0.443
Fyn enrich. R4 (Fyn kinase domain [3]; [9]): 0.884
Fyn difference (mean log2 variant - mean log2 reference) (Fyn kinase domain [3]; [10]): 0.1477
Fyn hit? (Fyn kinase domain [3]; [11]): FALSE
difference (Grb2 SH2 domain; Grb2 SH2, mean of log2(variant) minus mean of log2(reference)): -0.06902
mean of log2(variant) (Grb2 SH2 domain; Grb2 SH2, mean of log2 enrichment of variant, R1-R3): -0.6418
hit? (Grb2 SH2 domain; Grb2 SH2, variant versus reference significant hit call): FALSE
Fes mean of log2(enrichment) (Fes; mean of log2 of enrichment over R1-R6): -0.768
Fes difference (mean log2 variant - mean log2 reference) (Fes; [10]): 0.4232
Hck mean of log2(enrichment) (Hck kinase domain; mean of log2(variant) / mean of log2(reference), R1-R4): 0.5234
Hck enrich. R1 (Hck kinase domain; [7]): 0.3364
Hck enrich. R3 (Hck kinase domain; [8]): 0.4885
Hck enrich. R4 (Hck kinase domain; [9]): 0.9262
Hck difference (variant - reference) (Hck kinase domain; [10]): 0.1099
Hck hit? (Hck kinase domain; [11]): FALSE
difference (MERTK kinase domain; [12]): 0.1021
mean of log2(variant) (MERTK kinase domain; [15]): -1.214

Molecule: Ac-WDLPEYSFKDP-NH2 [ITGA3_Y237_S235P_YF, pTyr-Var library variant phosphosite peptide]
Phosphorylation Rate (c-Src kinase domain [4]): 0.153 s⁻¹
Screen (c-Src kinase domain [1]; sheet "Src", effect of the variant peptide relative to its reference peptide in the pTyr-Var library screen): -1.08

phosphorylation of intact SHP2 by FGFR1 (FGFR1 kinase domain [5]): dramatically enhanced phosphorylation
phosphorylation of intact SHP2 by Fyn (Fyn kinase domain [6]): dramatically enhanced phosphorylation
B1: SHP2 D61N: human full-length SHP2 (residues 1–526; C459E, D61N) (protein, UniProt Q06124 2-593, looked up, variant C459E D61N)
Tyrosine-protein phosphatase …: TSRRWFHPNITGVEAENLLLTRGVDGSFLARPSKSNPGDFTLSVRRNGAVTHIKIQNTGNYYDLYGGEKFATLAELVQYYMEHHGQLKEKNGDVIELKYPLNCADPTSERWFHGHLSGKEAEKLLTEKGKHGSFLVRESQSHPGDFVLSVRTGDDKGESNDGKSKVTHVMIRCQELKYDVGGGERFDSLTDLVEHYKKNPMVETLGTVLQLKQPLNTTRINAAEIESRVRELSKLAETTDKVKQGFWEEFETLQQQECKLLYSRKEGQRQENKNKNRYKNILPFDHTRVVLHDGDPNEPVSDYINANIIMPEFETKCNNSKPKKSYIATQGCLQNTVNDFWRMVFQENSRVIVMTTKEVERGKSKCVKYWPDEYALKEYGVMRVRNVKESAAHDYTLRELKLSKVGQGNTERTVWQYHFRTWPDHGVPSDPGGVLDFLEEVHHKQESIMDAGPVVVHESAGIGRTGTFIVIDILIDIIREKGVDCDIDVPKTIQMVRSQRSGMVQTEAQYRFIYMAVQHYIETLQRRIEEEQKSKRKGHEYTNIKYSLADQTSGDQSPLPPCTPTPPCAEMREDSARVYENVGLMQQQKSFR
